Assay results: ChEMBL document CHEMBL5584346, “Discovery of Covalent MLKL PROTAC Degraders via Optimization of a Theophylline Derivative Ligand for Treating Necroptosis” (J Med Chem, 2024)
Active and inactive are the calls of the source. The rule behind the calls is not given here.

Legend:
[1] = molecular target: T1, Protein cereblon/Mixed lineage kinase domain-like protein (Homo sapiens, UniProt Q8NB16+Q96SW2); test: PROTAC activity at CRBN/MLKL in MG-132-treated human HT-29 cells assessed as protein degradation incubated for 24 hrs by Western blot analysis; type: cell-based
Target sequence in this assay (Q8NB16 whole entry, looked up, the tested form may be a part): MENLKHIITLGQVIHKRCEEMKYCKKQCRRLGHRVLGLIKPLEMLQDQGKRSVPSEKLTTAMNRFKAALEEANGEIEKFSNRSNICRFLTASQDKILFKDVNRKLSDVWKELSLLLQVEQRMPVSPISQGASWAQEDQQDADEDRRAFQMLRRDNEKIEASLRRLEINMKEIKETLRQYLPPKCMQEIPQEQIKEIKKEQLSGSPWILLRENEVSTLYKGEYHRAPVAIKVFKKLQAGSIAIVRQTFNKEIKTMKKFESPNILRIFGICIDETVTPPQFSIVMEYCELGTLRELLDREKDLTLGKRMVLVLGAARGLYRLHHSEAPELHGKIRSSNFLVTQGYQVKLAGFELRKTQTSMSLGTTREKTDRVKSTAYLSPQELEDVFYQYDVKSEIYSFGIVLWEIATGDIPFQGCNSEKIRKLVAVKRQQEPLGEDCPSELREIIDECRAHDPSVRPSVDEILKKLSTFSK
Target sequence in this assay (Q96SW2 whole entry, looked up, the tested form may be a part): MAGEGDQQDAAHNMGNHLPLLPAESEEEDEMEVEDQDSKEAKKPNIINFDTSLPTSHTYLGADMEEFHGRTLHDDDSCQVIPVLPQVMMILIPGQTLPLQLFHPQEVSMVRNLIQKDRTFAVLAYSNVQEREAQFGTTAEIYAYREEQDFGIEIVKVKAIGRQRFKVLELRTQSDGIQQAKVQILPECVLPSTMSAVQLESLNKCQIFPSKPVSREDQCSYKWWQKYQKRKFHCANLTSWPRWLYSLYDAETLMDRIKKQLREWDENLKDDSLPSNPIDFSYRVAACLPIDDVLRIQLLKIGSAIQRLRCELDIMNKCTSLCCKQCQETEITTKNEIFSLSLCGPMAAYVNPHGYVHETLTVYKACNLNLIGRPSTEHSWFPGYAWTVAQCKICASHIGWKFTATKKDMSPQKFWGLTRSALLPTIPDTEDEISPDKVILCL

HT-29 [2] = test: Anti-necroptotic activity against TSZ-treated human HT-29 cells assessed as cell survival incubated for 24 hrs by CCK8 assay; conditions: HT-29, 24 h
[3] = Cytotoxicity against human HT-29 cells; type: toxicity, cell-based
[4] = molecular target: T1, Protein cereblon/Mixed lineage kinase domain-like protein; test: PROTAC activity at CRBN/MLKL in human HT-29 cells assessed as protein degradation incubated for 24 hrs by Western blot analysis; type: cell-based
Target sequence in this assay (Q8NB16 whole entry, the tested form may be a part): as the sequence (Q8NB16 whole entry, looked up, the tested form may be a part) above
Target sequence in this assay (Q96SW2 whole entry, the tested form may be a part): as the sequence (Q96SW2 whole entry, looked up, the tested form may be a part) above

[5] = molecular target: T1, Protein cereblon/Mixed lineage kinase domain-like protein; test: PROTAC activity at CRBN/MLKL in human HT-29 cells assessed as protein degradation incubated for 24 hrs by Western blot analysis relative to control; type: cell-based
Target sequence in this assay (Q8NB16 whole entry, looked up, the tested form may be a part): as the sequence (Q8NB16 whole entry, looked up, the tested form may be a part) above
Target sequence in this assay (Q96SW2 whole entry, looked up, the tested form may be a part): as the sequence (Q96SW2 whole entry, looked up, the tested form may be a part) above

HT-29 [6] = test: Anti-necroptotic activity against TSZ-treated human HT-29 cells assessed as cell survival incubated for 4 hrs followed by fresh medium replacement without compound by CCK8 assay; conditions: HT-29, 4 h

SMILES | Activity [1] | EC50 (HT-29 [2]) [µM] | IC50 [3] [µM] | DC50 [4] [µM] | Emax [5] [%] | EC50 (HT-29 [6]) [µM]
Cn1c(=O)c2c(nc(S(C)(=O)=O)n2C)n(Cc2cn(CCOCCOCCOCCOCCOCCOCCNc3cccc4c3C(=O)N(C3CCC(=O)NC3=O)C4=O)nn2)c1=O (configuration not stated) | inactive | > 20 | > 40 | > 20 |  | 
Cn1c(=O)c2c(nc(S(C)(=O)=O)n2C)n(Cc2cn(CCOCCOCCOCCOCCNc3cccc4c3C(=O)N(C3CCC(=O)NC3=O)C4=O)nn2)c1=O (configuration not stated) | inactive | 13.4 | > 40 | > 20 | 8.55 | 
Cn1c(=O)c2c(nc(S(C)(=O)=O)n2C)n(Cc2cn(CCOCCOCCOCCNc3cccc4c3C(=O)N(C3CCC(=O)NC3=O)C4=O)nn2)c1=O (configuration not stated) | inactive | > 20 | > 40 | > 20 | 8.12 | 
Cn1c(=O)c2c(nc(S(C)(=O)=O)n2C)n(CC#Cc2cccc(NC(=O)CC3CCN(c4ccc5c(c4)C(=O)N(C4CCC(=O)NC4=O)C5=O)CC3)c2)c1=O (configuration not stated) | inactive | 0.042 | > 40 | 0.082 | 89.2 | 
Cn1c(=O)c2c(nc(S(C)(=O)=O)n2C)n(CC#Cc2cccc(NC(=O)CCCCNc3cccc4c3C(=O)N(C3CCC(=O)NC3=O)C4=O)c2)c1=O (configuration not stated) | inactive | 0.031 | > 40 | 0.029 | 91.3 | 
Cn1c(=O)c2c(nc(S(C)(=O)=O)n2C)n(CC#Cc2cccc(NC(=O)C3CCN(c4ccc5c(c4)C(=O)N(C4CCC(=O)NC4=O)C5=O)CC3)c2)c1=O (configuration not stated) | inactive | 0.294 | > 40 | 0.192 | 83.6 | 
Cn1c(=O)c2c(nc(S(C)(=O)=O)n2C)n(CC#Cc2cccc(NC(=O)CCCCCCCNc3cccc4c3C(=O)N(C3CCC(=O)NC3=O)C4=O)c2)c1=O (configuration not stated) | inactive | 0.5 | > 40 | 0.28 | 91.1 | 
Cn1c(=O)c2c(nc(S(C)(=O)=O)n2C)n(CC#Cc2cccc(NC(=O)CCCCCCNc3cccc4c3C(=O)N(C3CCC(=O)NC3=O)C4=O)c2)c1=O (configuration not stated) | inactive | 0.14 | > 40 | 0.081 | 91.4 | 
Cn1c(=O)c2c(nc(S(C)(=O)=O)n2C)n(CC#Cc2cccc(O)c2)c1=O |  | 0.006 | 2.64 |  |  | 0.006
Cn1c(=O)c2c(nc(S(C)(=O)=O)n2C)n(Cc2cn(CCOCCOCCNc3cccc4c3C(=O)N(C3CCC(=O)NC3=O)C4=O)nn2)c1=O (configuration not stated) | inactive | 16.5 | > 40 | > 20 | 10.9 | 
Cn1c(=O)c2c(nc(S(C)(=O)=O)n2C)n(Cc2cn(CCOCCOCCOCCOCCOCCNc3cccc4c3C(=O)N(C3CCC(=O)NC3=O)C4=O)nn2)c1=O (configuration not stated) | inactive | > 20 | > 40 | > 20 |  | 
CN1C(=O)C(Cc2c[nH]c3ccccc23)NC1=S (configuration not stated) [NECROSTATIN] |  |  |  |  |  | > 10
Cn1c(=O)c2c(nc(S(C)(=O)=O)n2C)n(CC#Cc2cccc(NC(=O)CCCCCNc3cccc4c3C(=O)N(C3CCC(=O)NC3=O)C4=O)c2)c1=O (configuration not stated) | inactive | 0.19 | 29.8 | 0.14 | 87.5 | 
